We go through 33 molecules from patent publication US20250171465A1, “AKT INHIBITORS” (Stablix, Inc., priority 2023, published 2025).

In assay [1] the test system is KU1919.1. In words: Cell Titer Glo (CTG) proliferation assay, KU1919. To be noted: Homo sapiens, KU-19-19; KU1919.1 cells, 72.0 hrs.; read-out: AVE CTG Proliferation KU1919.1 72.0 hrs. The class given is cell-based. On the procedure: (§1) Seed cells in 40 μL of cell culture media into each well of 384-well cell culture plate, spin them at room temperature at 1,000 RPM for 1 minute and then transfer the plates into 37° C. 5% CO2 incubator overnight. Next day, treat cells with 40 nL of diluted compound and return to incubator. After compound treatment for 3 days, Add 30 μL of CellTiter-Glo reagent (Promega) into each well to be detected. Then place the plates at room temperature for 30 min followed by reading on EnVision. Inhibition activity calculated as % DMSO=100×(LumSample-Lum low control)/(Lum high control-Lum low control) where high control is from cells treated with 0.1% DMSO and Low control obtained from PBS only. Use XLFit (equation 201) to calculate IC50 (A+ ((B−A)/(1[…]((x/C)^D)))) where A: Bottom, B: Top, C: IC50, D: Slope.

Assay [2] deals with MDAMB468.1. The assay is described as follows: Cell Titer Glo (CTG) proliferation assay, MDA-MB-468. It counts as cell-based. To be noted: Homo sapiens, MDA-MB-468; MDAMB468.1 cells, 72.0 hrs.; read-out: AVE CTG Proliferation MDAMB468.1 72.0 hrs. Here is the method:
as §1

For `CCc1cccc(-c2cnc(C(=O)N3CCC(OC4CCN(CC(=O)NCCNC[C@@H](C(=O)N5CCN(c6ncnc7c6[C@H](C)C[C@H]7O)CC5)c5ccc(Cl)cc5)CC4)CC3)c(NC(=O)CN3CCOCC3)c2)c1` [Compound I-174], the IC50 in assay [1] and in assay [2] was 1 to 5 µM in each case. Take `NC1(C(=O)N[C@@H](CCN2CCN(C(=O)CN3CCC(OC4CCN(C(=O)[C@H](NC(=O)c5cc(C6CCCN(C(=O)CNCc7ccc(F)cc7F)C6)ccc5F)C5CCCCC5)CC4)CC3)CC2)c2ccc(Cl)cc2)CCN(c2ncnc3[nH]ccc23)CC1` (stereo partly shown) [Compound I-225]: the IC50 in assay [1] and in assay [2] was 1 to 5 µM each time. Regarding `CCc1cccc(-c2cnc(C(=O)N3CCC(CN4CCN(CC(=O)NCCNC[C@@H](C(=O)N5CCN(c6ncnc7c6[C@H](C)C[C@H]7O)CC5)c5ccc(Cl)cc5)CC4)CC3)c(NC(=O)CN3CCOCC3)c2)c1` [Compound I-172], the IC50 in assay [1] and in assay [2] was 5 to 10 µM throughout. For `CCc1cccc(-c2cnc(C(=O)N3CCN(CC4CCN(CC(=O)NCCNC[C@@H](C(=O)N5CCN(c6ncnc7c6[C@H](C)C[C@H]7O)CC5)c5ccc(Cl)cc5)CC4)CC3)c(NC(=O)CN3CCOCC3)c2)c1` [Compound I-173], the IC50 in assay [1] and in assay [2] was 1 to 5 µM throughout. On to `CCc1cccc(-c2cnc(C(=O)N3CCC(OC4CCN(CC(=O)NCCNC[C@@H](C(=O)N5CCN(c6ncnc7c6[C@H](C)C[C@H]7O)CC5)c5ccc(Cl)cc5)CC4)CC3)c(NC(=O)CNCc3ccncn3)c2)c1` [Compound I-167], for which the IC50 in assay [1] and in assay [2] was over 10 µM in each case. For the molecule `CCc1cccc(-c2cnc(C(=O)N3CCN(CC45CCC(NCC(=O)NCCNC[C@@H](C(=O)N6CCN(c7ncnc8c7[C@H](C)C[C@H]8O)CC6)c6ccc(Cl)cc6)(CC4)CO5)CC3)c(NC(=O)CN3CCOCC3)c2)c1` [Compound I-175], the IC50 in assay [1] and in assay [2] was 1 to 5 µM each time.

For the molecule `NC1(C(=O)N[C@@H](CCN2CCN(C(=O)CN3CCC(OC4CCN(C(=O)c5cccc(C6CCCN(C(=O)CNCc7ccc(F)cc7F)C6)c5)CC4)CC3)CC2)c2ccc(Cl)cc2)CCN(c2ncnc3[nH]ccc23)CC1` (stereo partly shown) [Compound I-256], the IC50 in assay [1] and in assay [2] was 5 to 10 µM each time. Regarding `CCc1cccc(-c2cnc(C(=O)N3CCN(CC45CCC(NCC(=O)NCCNC[C@@H](C(=O)N6CCN(c7ncnc8c7[C@H](C)C[C@H]8O)CC6)c6ccc(Cl)cc6)(CC4)CO5)CC3)c(N)c2)c1` [Compound I-195], the IC50 in assay [1] and in assay [2] was over 10 µM each time.

For `CCc1cccc(-c2cnc(C(=O)N3CCC(CN4CCN(CC(=O)NCCNC[C@@H](C(=O)N5CCN(c6ncnc7c6[C@H](C)C[C@H]7O)CC5)c5ccc(Cl)cc5)CC4)CC3)c(NC(=O)CNCc3ccncn3)c2)c1` [Compound I-165], the IC50 in assay [1] and in assay [2] was over 10 µM each time. Consider `C[C@@H]1C[C@@H](O)c2ncnc(N3CCN(C(=O)[C@H](CNCCNC(=O)CNC45CCC(CN6CCN(C(=O)[C@H](NC(=O)c7cccc(C8CCCN(C(=O)CNCc9ccc(F)cc9F)C8)c7)C7CCCCC7)CC6)(CC4)OC5)c4ccc(Cl)cc4)CC3)c21` (stereo partly shown) [Compound I-203], for which the IC50 in assay [1] and in assay [2] was 5 to 10 µM in each case. `CCOc1cc(OC)ccc1CNCC(=O)N1CCCC(c2cccc(C(=O)N[C@@H](C(=O)N3CCN(CC4CCN(CC(=O)NCCN(C[C@@H](C(=O)N5CCN(c6nncc7c6[C@H](C)C[C@H]7O)CC5)c5ccc(Cl)cc5)C(C)C)CC4)CC3)C3CCCCC3)c2)C1` (stereo partly shown) [Compound I-171]: the values for the IC50 in assay [1] and in assay [2] were 0.5 to 1 µM and 1 to 5 µM, respectively.

Consider `CCc1cccc(-c2cnc(C(=O)NCCOCCNCC(=O)NCCN(C[C@@H](C(=O)N3CCN(c4ncnc5c4[C@H](C)C[C@H]5O)CC3)c3ccc(Cl)cc3)C(C)C)c(NC(C)=O)c2)c1` [Compound I-216], for which the IC50 in assay [1] and in assay [2] was 1 to 5 µM each time. On to `CCc1cccc(-c2cnc(C(=O)N3CCC(OC4CCN(CC(=O)NCCNC[C@@H](C(=O)N5CCN(c6ncnc7c6[C@H](C)C[C@H]7O)CC5)c5ccc(Cl)cc5)CC4)CC3)c(N)c2)c1` [Compound I-194], for which the IC50 in assay [1] and in assay [2] was 5 to 10 µM each time.

With `NC1(C(=O)N[C@@H](CCN2CCC(OC3CCN(C(=O)[C@H](NC(=O)c4cc(C5CCCN(C(=O)CNCc6ccc(F)cc6F)C5)ccc4F)C4CCCCC4)CC3)CC2)c2ccc(Cl)cc2)CCN(c2ncnc3[nH]ccc23)CC1` (stereo partly shown) [Compound I-222], the IC50 in assay [1] was 1 to 5 µM. On the same count and under the same terms, the value for `NC1(C(=O)N[C@@H](CCN2CCC(OC3CCN(C(=O)[C@H](NC(=O)c4cccc(C5CN(C(=O)CNC6CC6)C5)c4)C4CCCCC4)CC3)CC2)c2ccc(Cl)cc2)CCN(c2ncnc3[nH]ccc23)CC1` [Compound I-244] was 1 to 5 µM; that for `CC1(C(=O)N2CCCC(c3cccc(C(=O)N[C@@H](C(=O)N4CCC(OC5CCN(CCOCC[C@H](NC(=O)C6(N)CCN(c7ncnc8[nH]ccc78)CC6)c6ccc(Cl)cc6)CC5)CC4)C4CCCCC4)c3)C2)CC1` (stereo partly shown) [Compound I-294] was 1 to 5 µM. Still for that read-out and setting: the value for `CCc1cccc(-c2cnc(C(=O)N3CCN(CC4CCN(CC(=O)NCCNC[C@@H](C(=O)N5CCN(c6ncnc7c6[C@H](C)C[C@H]7O)CC5)c5ccc(Cl)cc5)CC4)CC3)c(NC(=O)CNCc3ccncn3)c2)c1` [Compound I-166] was 1 to 5 µM; that for `NC1(C(=O)N[C@@H](CCN2CCC(OC3CCN(C(=O)c4cccc(C5CCCN(C(=O)C6CC6)C5)c4F)CC3)CC2)c2ccc(Cl)cc2)CCN(c2ncnc3[nH]ccc23)CC1` (stereo partly shown) [Compound I-290] was 1 to 5 µM. As for `NC1(C(=O)N[C@@H](CCNS(=O)(=O)CCCCNC(=O)[C@H](NC(=O)c2cccc(C3CCCN(C(=O)CNCc4ccc(F)cc4F)C3)c2)C2CCCCC2)c2ccc(Cl)cc2)CCN(c2ncnc3[nH]ccc23)CC1` (stereo partly shown) [Compound I-239], the IC50 in assay [1] is over 10 µM. Same read-out and setting: the value for `C[C@@H]1C[C@@H](O)c2ncnc(N3CCN(C(=O)[C@H](CCN4CCC(CN5CCN(C(=O)[C@H](NC(=O)c6cccc(C7CCCN(C(=O)CNCc8ccc(F)cc8F)C7)c6)C6CCCCC6)CC5)CC4)c4ccc(Cl)cc4)CC3)c21` (stereo partly shown) [Compound I-274] was 0.5 to 1 µM; that for `NC1(C(=O)N[C@@H](CCN2CCC(OC3CCN(C(=O)[C@H](NC(=O)c4ccc(C5CCN(C(=O)CNCc6ccc(F)cc6F)CC5)cc4)C4CCCCC4)CC3)CC2)c2ccc(Cl)cc2)CCN(c2ncnc3[nH]ccc23)CC1` [Compound I-220] was 1 to 5 µM.

Turning to `C[C@@H]1C[C@@H](O)c2ncnc(N3CCN(C(=O)[C@@H](CCN4CCC(CN5CCN(C(=O)[C@H](NC(=O)c6cccc(C7CCCN(C(=O)CNCc8ccc(F)cc8F)C7)c6)C6CCCCC6)CC5)CC4)c4ccc(Cl)cc4)CC3)c21` (stereo partly shown) [Compound I-275], the IC50 in assay [1] fell in the range of 0.5 to 1 µM. Same read-out and setting: the value for `CC1(C(=O)N2CCCC(c3cccc(C(=O)N[C@@H](C(=O)NCCCCCOCC[C@H](NC(=O)C4(N)CCN(c5ncnc6[nH]ccc56)CC4)c4ccc(Cl)cc4)C4CCCCC4)c3)C2)CC1` (stereo partly shown) [Compound I-297] was 5 to 10 µM; that for `CCc1cccc(-c2cnc(C(=O)NCCOCCNCC[C@H](NC(=O)C3(N)CCN(c4ncnc5[nH]ccc45)CC3)c3ccc(Cl)cc3)c(NC(=O)CN3CCOCC3)c2)c1` [Compound I-178] was 1 to 5 µM; that for `CC(C)(C)OC(=O)N1CCC(OC2CCN(CC[C@H](NC(=O)C3(N)CCN(c4ncnc5[nH]ccc45)CC3)c3ccc(Cl)cc3)CC2)CC1` [Compound I-316] was 1 to 5 µM.

For the molecule `NC1(C(=O)N[C@@H](CCN2CCN(C(=O)C34CCC(CN5CCN(C(=O)c6cccc(C7CCCN(C(=O)C8CC8)C7)c6)CC5)(CC3)OC4)CC2)c2ccc(Cl)cc2)CCN(c2ncnc3[nH]ccc23)CC1` (stereo partly shown) [Compound I-246], the IC50 in assay [1] fell in the range of 1 to 5 µM.

Consider `NC1(C(=O)N[C@@H](CCN2CCC(OC3CCN(C(=O)[C@H](NC(=O)c4cccc(C5CCCN(C(=O)CNC6CC6)C5)c4)C4CCCCC4)CC3)CC2)c2ccc(Cl)cc2)CCN(c2ncnc3[nH]ccc23)CC1` (stereo partly shown) [Compound I-250], for which the IC50 in assay [1] fell in the range of 1 to 5 µM.

Take `C=CC(=O)N1CCN(c2ccc(CCC(=O)N3CCC(CN4CCN(CC[C@H](NC(=O)C5(N)CCN(c6ncnc7[nH]ccc67)CC5)c5ccc(Cl)cc5)CC4)CC3)o2)C(=O)C1` [Compound I-284]: the IC50 in assay [1] fell in the range of 1 to 5 µM. On the same count and under the same terms, in the case of `NC1(C(=O)N[C@@H](CCN2CCN(C(=O)CN3CCC(CN4CCN(C(=O)c5cccc(C6CCCN(C(=O)C7CC7)C6)c5)CC4)CC3)CC2)c2ccc(Cl)cc2)CCN(c2ncnc3[nH]ccc23)CC1` (stereo partly shown) [Compound I-233] it was 5 to 10 µM; in that of `NC1(C(=O)N[C@@H](CCOCCN2CCC(OC3CCN(C(=O)[C@H](NC(=O)c4cccc(C5CCCN(C(=O)CNCc6ccc(F)cc6F)C5)c4)C4CCCCC4)CC3)CC2)c2ccc(Cl)cc2)CCN(c2ncnc3[nH]ccc23)CC1` (stereo partly shown) [Compound I-236], 0.5 to 1 µM; in that of `C=CC(=O)N1CCN(c2ccc(CCC(=O)N3CCC(OC4CCN(CC[C@H](NC(=O)C5(N)CCN(c6ncnc7[nH]ccc67)CC5)c5ccc(Cl)cc5)CC4)CC3)o2)C(=O)C1` [Compound I-285], over 10 µM.

As to `C[C@@H]1C[C@@H](O)c2ncnc(N3CCN(C(=O)[C@@H](CCN4CCC(CN5CCN(C(=O)[C@H](NC(=O)c6cccc(C7CCCN(C(=O)CNC8CC8)C7)c6)C6CCCCC6)CC5)CC4)c4ccc(Cl)cc4)CC3)c21` (stereo partly shown) [Compound I-273], the IC50 in assay [1] was 0.5 to 1 µM.

As for `C[C@@H]1C[C@@H](O)c2ncnc(N3CCN(C(=O)[C@H](CN4CCC(OC5CCN(C(=O)[C@H](NC(=O)c6cccc(C7CCCN(C(=O)C8(C)CC8)C7)c6F)C6CCCCC6)CC5)CC4)c4ccc(Cl)cc4)CC3)c21` (stereo partly shown) [Compound I-291], the IC50 in assay [1] lay in the range of 1 to 5 µM.
